Measurements published in patent publication US20030022821A1, “Bioactive peptides” (priority 1998, published 2003).
In brackets after ≈: the same amount, converted by molar mass. Like-named read-outs stand apart in the source and are kept apart here. One block for each compound: values may come before it. Square brackets hold non-standard residues; d marks the D form. Ends that are not written are not given here. Peptide text beside a SMILES is read from it. * marks the point of attachment. Trp(2-Pmc) = Cc1c(C)c(S(=O)(=O)c2[nH]c3ccccc3c2C[C@H](N)C(=O)O)c(C)c2c1OC(C)(C)CC2; Bip = N[C@@H](Cc1ccc(-c2ccccc2)cc1)C(=O)O; Fmoc = O=C(OCC1c2ccccc2-c2ccccc21)*; Acm = CC(=O)NC*

Legend:
[1] = tested on: Meth A cells (murine sarcoma cell line); assay: Cytotoxicity on Meth A cells, MTT method
Experimental: Peptide solutions (0.1 ml) were added and the plates incubated at 37° C. for 30 minutes, 4 hours or 24 hours. The cytotoxicity was measured using the MTT method (Mosmann et al., J. Immunol. (1986) 136, 2348-2357).
Cells in the growth phase were harvested and washed in fresh medium and injected subcutaneously into the abdominal region of the mice.
The cytotoxic effect of the peptides on different murine and human tumor cells were measured using the MTT method (Mosmann et al., J. Immunol. (1986) 136, 2348-2357). MTT is a soluble tetrazolium salt yielding a yellow solution when prepared in media or salt solutions lacking phenol red. Dissolved MTT is converted to an insoluble purple formazan by cleavage of the tetrazolium ring by dehydrogenase enzymes. This water insoluble formazan can be solubilized using isopropanol or other solvents and the dissolved material is measured spectrophotometrically. The absorbance was measured as a function of concentration of converted dye.
Cells were maintained in […] medium containing 10% FBS, 1% L-glutamine and 0.1% penicillin and streptomycin. Cells to be used in the assay were grown to confluency, trypsinated and split to single cell suspension, counted and centrifuged at 1500 rpm for 10 min. […][…] of cell suspension was transferred to each well on a 96-well microtiter plate. The cells were stimulated by adding […] of various concentrations of peptides diluted with assay medium to each well. The final concentrations of peptide were for example: 5, 10, 20, 40, 60, 80, 100, and 200 mg/ml. […] As a negative control only medium was added to the cells, and as a positive control (100% killing) 1% triton X-100 was added. Following an incubation period of 4 h., 20 ml MTT dissolved in PBS at a concentration of 5 mg/ml was added to each well, and the plate was incubated further for 2 h. 130 ml of the supernatant were then removed and […] acid alcohol (0.04-0.1 N HCl in isopropanol) added to each well to dissolve the dark blue crystals. The plate was placed on a shaker for 1 h and read spectrophotometrically at 590 nm in a microtiterplate reader using the Softmaxâ program.

human red blood cells = assay: Hemolytic assay; format: cell-based
Experimental: The hemolytic activities of the peptides were determined using fresh human red blood cells. 8 ml blood was taken from a healthy person. 4 ml blood was transferred to a polycarbonate tube containing heparin to a final concentration of 10 U/ml, and the remaining 4 ml blood was transferred to a glass tube containing EDTA with final concentration of 15% EDTA. The erythrocytes were isolated from heparin-treated blood by centrifugation in 1500 rpm for 10 min and washed three times with phosphate-buffered saline (PBS) to remove plasma and buffy coat. The cell pellet was resuspended in PBS to make the final volume of 4 ml. The peptide was diluted to a concentration of 2 mg/ml and 0.1 mg/ml. The peptide was further diluted to the concentrations as stated in Table 15. For each tube PBS was added first, then RBCs and peptide solutions. The hematocrit in the blood treated with EDTA was determined after 30 min with Sysmex K-1000, and the resuspended RBCs were diluted into 10% hematocrit. RBCs in PBS (1%) with and without peptides (Table 15) were incubated in a shaker at […] for 1 hour and then centrifuged at 4000 rpm for 5 min. The supernatant were carefully transferred to new polycarbonate tubes and the absorbance of the supernatant was measured at 540 nm. Baseline hemolysis was hemoglobin released in the presence of PBS, and 100% hemolysis was hemoglobin released in the presence of 0.1% Triton X-100.

[2] = tested on: Staphylococcus aureus ATCC 25923; format: cell-based
Method in brief: (§1)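 Inoculum of 2×10^6 CFU/ml, mid-logarithmic growth phase, in 1% Bacto Peptone water; standard microdilution, performed in triplicate.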

[3] = tested on: Escherichia coli ATCC 25922; format: cell-based
Method in brief: as §1

MIC S. aureus ([2]; ATCC 25923): 150 µg/mL (≈ 74.7 µM)
MIC E. coli ([3]; ATCC 25922): 30 µg/mL (≈ 14.9 µM)
Compound: CSCC[C@H](NC(=O)[C@H](CCCNC(=N)N)NC(=O)[C@H](Cc1c[nH]c2ccccc12)NC(=O)[C@H](C)NC(=O)[C@H](Cc1c[nH]c2ccccc12)NC(=O)[C@H](CCCNC(=N)N)NC(=O)[C@H](CCCNC(=N)N)NC(=O)[C@H](CSCNC(C)=O)NC(=O)[C@H](CCCCN)NC(=O)[C@@H](N)Cc1ccccc1)C(=O)N[C@@H](CCCCN)C(=O)N[C@@H](CCCCN)C(=O)N[C@@H](CC(C)C)C(=O)NCC(=O)N[C@@H](C)C(=O)O [LFB A7] (H-FKC(Acm)RRWAWRMKKLGA-OH)
MethA IC50 ([1]; 4 h): 500 µg/mL

MIC S. aureus ([2]; ATCC 25923): 160 µg/mL (≈ 76.9 µM)
MIC E. coli ([3]; ATCC 25922): 25 µg/mL (≈ 12 µM)
Compound: CSCC[C@H](NC(=O)[C@H](CCCNC(=N)N)NC(=O)[C@H](Cc1c[nH]c2ccccc12)NC(=O)[C@H](CCC(N)=O)NC(=O)[C@H](Cc1c[nH]c2ccccc12)NC(=O)[C@H](CCCNC(=N)N)NC(=O)[C@H](CCCNC(=N)N)NC(=O)[C@H](CSCNC(C)=O)NC(=O)[C@H](CCCCN)NC(=O)[C@@H](N)Cc1ccccc1)C(=O)N[C@@H](CCCCN)C(=O)N[C@@H](CCCCN)C(=O)N[C@@H](CC(C)C)C(=O)N[C@@H](C)C(=O)N[C@@H](C)C(=O)O [LFB A14] (H-FKC(Acm)RRWQWRMKKLAA-OH)
MethA IC50 ([1]; 4 h): 500 µg/mL

MIC S. aureus ([2]; ATCC 25923): 100 µg/mL
MIC E. coli ([3]; ATCC 25922): 25 µg/mL
Compound: H-FKARRWQWRMKKLGA-OH [LFB A3]
MethA IC50 ([1]; 4 h): 500 µg/mL

MIC S. aureus ([2]; Table 6, unit assumed): 10 µg/mL
MIC S. aureus ([2]; Table 12): 10 µg/mL
MIC E. coli ([3]; Table 6): 10 µg/mL
MIC E. coli ([3]; Table 12): 10 µg/mL
Compound: H-FKWRRWQWRMKKLWA-OH [LFB W3, 14, H2N-Phe-Lys-Trp-Arg-Arg-Trp-Gln-Trp-Arg-Met-Lys-Lys-Leu-Trp-Ala-COOH]
EC 50 (human red blood cells): >1000 µg/mL
EC50 (human red blood cells): > 453 µM
% Hemolysis 10 μg/ml (human red blood cells; red cells of human): 3.1%
% Hemolysis 100 μg/ml (human red blood cells; red cells of human): 5.1%

MIC S. aureus ([2]; ATCC 25923): >100 µg/mL
MIC E. coli ([3]; ATCC 25922): 40 µg/mL
Compound: RRWQWRMKKLG-OH [LFB 20-30]
% Hemolysis 10 μg/ml (human red blood cells; red cells of human): 2.16%
% Hemolysis 100 μg/ml (human red blood cells; red cells of human): 3.1%

Further lines, the compound ahead of its results:

Compound: CSCC[C@H](NC(=O)[C@H](CCCNC(=N)N)NC(=O)[C@H](Cc1c[nH]c2ccccc12)NC(=O)[C@H](C)NC(=O)[C@H](Cc1c[nH]c2ccccc12)NC(=O)[C@H](CCCNC(=N)N)NC(=O)[C@H](CCCNC(=N)N)NC(=O)[C@H](C)NC(=O)[C@H](CCCCN)NC(=O)[C@H](Cc1ccc(-c2ccccc2)cc1)NC(=O)[C@H](Cc1c[nH]c2ccccc12)NC(=O)[C@H](C)NC(=O)[C@@H]1CCCN1)C(=O)N[C@@H](CCCCN)C(=O)N[C@@H](CCCCN)C(=O)N[C@@H](CC(C)C)C(=O)N[C@@H](C)C(=O)N[C@@H](C)C(=O)O [LFB1431A2, 6, 10, 17Bip4] (H-PAW[Bip]KARRWAWRMKKLAA-OH; N-terminus assumed)
EC50 ([1]; 4 h): 23.4 µM
EC50 (human red blood cells; red cells of human): 336 µM

Compound: CSCC[C@H](NC(=O)[C@H](CCCNC(=N)N)NC(=O)[C@H](Cc1c[nH]c2ccccc12)NC(=O)[C@H](C)NC(=O)[C@H](Cc1c[nH]c2ccccc12)NC(=O)[C@H](CCCNC(=N)N)NC(=O)[C@H](CCCNC(=N)N)NC(=O)OCC1c2ccccc2-c2ccccc21)C(=O)N[C@@H](CCCCN)C(=O)N[C@@H](CCCCN)C(=O)O [LFB 20-28 A4 FMOC] (Fmoc-RRWAWRMKK-OH)
MethA IC50 ([1]; 4 h): 120 µg/mL

Compound: CSCC[C@H](NC(=O)[C@H](CCCNC(=N)N)NC(=O)[C@H](C)NC(=O)[C@H](CCC(N)=O)NC(=O)[C@H](Cc1c(S(=O)(=O)c2c(C)c(C)c3c(c2C)CCC(C)(C)O3)[nH]c2ccccc12)NC(=O)[C@H](CCCNC(=N)N)NC(=O)[C@H](CCCNC(=N)N)NC(=O)[C@H](CSCNC(C)=O)NC(=O)[C@H](CCCCN)NC(=O)[C@H](Cc1ccccc1)NC(=O)OCC1c2ccccc2-c2ccccc21)C(=O)N[C@@H](CCCCN)C(=O)N[C@@H](CCCCN)C(=O)N[C@@H](CC(C)C)C(=O)NCC(=O)N[C@@H](C)C(=O)O [LFB A8 FMOC PMC] (Fmoc-FKC(Acm)RR[Trp(2-Pmc)]QARMKKLGA-OH)
concentration killing Meth A tumor cells ([1]; after 4 hours incubation): 50 µg/mL
concentration killing Meth A tumor cells ([1]; after ½ hour incubation): higher than 100 μg/ml
% Hemolysis 10 μg/ml (human red blood cells; red cells of human): 6.75%
% Hemolysis 100 μg/ml (human red blood cells; red cells of human): 45.4%

Compound: CSCC[C@H](NC(=O)[C@H](CCCNC(=N)N)NC(=O)[C@H](C)NC(=O)[C@H](CCC(N)=O)NC(=O)[C@H](Cc1c(S(=O)(=O)c2c(C)c(C)c3c(c2C)CCC(C)(C)O3)[nH]c2ccccc12)NC(=O)[C@H](CCCNC(=N)N)NC(=O)[C@H](CCCNC(=N)N)NC(=O)[C@H](CSCNC(C)=O)NC(=O)[C@H](CCCCN)NC(=O)[C@@H](N)Cc1ccccc1)C(=O)N[C@@H](CCCCN)C(=O)N[C@@H](CCCCN)C(=O)N[C@@H](CC(C)C)C(=O)NCC(=O)N[C@@H](C)C(=O)O [LFB A8 PMC] (H-FKC(Acm)RR[Trp(2-Pmc)]QARMKKLGA-OH)
MethA IC50 ([1]; 4 h): 275 µg/mL
MIC S. aureus ([2]; ATCC 25923): 17.5 µg/mL (≈ 7.89 µM)
MIC E. coli ([3]; ATCC 25922): 15 µg/mL (≈ 6.77 µM)

Compound: CSCC[C@H](NC(=O)[C@H](CCCCN)NC(=O)[C@H](CCCCN)NC(=O)[C@H](CC(C)C)NC(=O)CNC(=O)[C@H](C)N)C(=O)N[C@@H](CCCNC(=N)N)C(=O)N[C@@H](Cc1c[nH]c2ccccc12)C(=O)N[C@@H](CCC(N)=O)C(=O)N[C@@H](Cc1c[nH]c2ccccc12)C(=O)N[C@@H](CCCNC(=N)N)C(=O)N[C@@H](CCCNC(=N)N)C(=O)N[C@@H](CSCNC(C)=O)C(=O)N[C@@H](CCCCN)C(=O)N[C@@H](Cc1ccccc1)C(=O)O [Retro LFB 17-31]
% Hemolysis 10 μg/ml (human red blood cells; red cells of human): 2.01%
MIC S. aureus ([2]; Table 3, unit assumed): 200 µg/mL (≈ 96.8 µM)
MIC E. coli ([3]; Table 3): 80 µg/mL (≈ 38.7 µM)

Compound: CSCC[C@@H](NC(=O)[C@@H](CCCCN)NC(=O)[C@@H](CCCCN)NC(=O)[C@@H](CC(C)C)NC(=O)CNC(=O)[C@@H](C)N)C(=O)N[C@H](CCCNC(=N)N)C(=O)N[C@H](Cc1c[nH]c2ccccc12)C(=O)N[C@H](CCC(N)=O)C(=O)N[C@H](Cc1c[nH]c2ccccc12)C(=O)N[C@H](CCCNC(=N)N)C(=O)N[C@H](CCCNC(=N)N)C(=O)N[C@H](CSCNC(C)=O)C(=O)N[C@H](CCCCN)C(=O)N[C@H](Cc1ccccc1)C(=O)O [Retro-Enantio LFB 17-31]
% Hemolysis 10 μg/ml (human red blood cells; red cells of human): 3.31%
MIC S. aureus ([2]; Table 3, unit assumed): 80 µg/mL (≈ 38.7 µM)
MIC E. coli ([3]; Table 3): 6.25 µg/mL (≈ 3.03 µM)

Compound: Linear LFB (17-41) modified with Pmc: linear LFB (17-41) modified with Pmc
cytotoxic effect on Meth A cells compared with another peptide [1]: slightly more effective than Pmc modified LFB 17-31

Compound: PAWFKARRWAWRMKK-OH [LFB 14-28 A2,6, 10]
IC50 ([1]; 4 h): > 248 µM
EC50 (human red blood cells; red cells of human): > 438 µM

Compound: PAWFKARRWAWRMKKL-OH [LFB 14-29 A2,6, 10]
IC50 ([1]; 4 h): > 235 µM
EC50 (human red blood cells; red cells of human): > 469 µM

Compound: PAWFKARRWAWRMKKLA-OH [LFB 14-30 A2,6, 10, 17]
IC50 ([1]; 4 h): > 227 µM
EC50 (human red blood cells; red cells of human): > 454 µM

Compound: PAWRKARRWARRMKKLAA-OH [LFB 14-31 A2,6, 10, 17R4, 11]
IC50 ([1]; read-out: MethA IC 50, Table 7, peptide required to kill 50% of MethA cells): 75.5 µM
EC50 (human red blood cells; red cells of human): > 444 µM

Compound: YRAWRWAWRWR-NH2 [LFB 17-27 A3, 7 R2, 11 W4, 10 Y1 NH2, TYR-ARG-ALA-TRP-ARG-TRP-ALA-TRP-ARG-TRP-ARG-CONH2]
EC50 (human red blood cells): 400 ± 200 µM
EC 50 (human red blood cells; Table 13, toxicity (hemolysis)): 700 ± 300 µg/mL
MIC S. aureus ([2]; Table 14): 2.5 µg/mL
MIC E. coli ([3]; Table 14, peptides with a proportion of D amino acids): 10 µg/mL
